Experimental data as given in patent publication US20250380697A1, “ISOXAZOLINE DERIVATIVE COMPOUND AND INSECTICIDAL COMPOSITION COMPRISING SAME” (KYUNG NONG CORPORATION, priority 2022, published 2025).

What was measured:
Type in all cases: in vivo
Spodoptera litura = assay: Pesticidal activity against Spodoptera litura, leaf-dipping method; conditions: 48 h, read-out: mortality rate, Spodoptera litura
[1] = tested on: Frankliniella occidentalis; assay: Pesticidal activity against Frankliniella occidentalis, spray method; conditions: 48 h, read-out: mortality rate, Frankliniella occidentalis
In short: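 Ten F. occidentalis adults per dish sprayed with compound at 100 ppm in water/acetone 50,000 mg/L/Triton X-100 100 mg/L, then given a soybean cotyledon. Held at 25±1 °C, 50-60% RH, 16:8 h light:dark; live adults counted 48 h after inoculation to give mortality.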

Thrips tabaci Lindeman = assay: Pesticidal activity against Thrips tabaci Lindeman, spray method; conditions: adults, counted 24 and 48 hours, time not given, read-out: mortality rate, Thrips tabaci Lindeman
Excerpt: A water-soaked filter paper (9.0 cm in diameter) was placed in an insect breeding dish (Lab Guide®) with a diameter of 9.0 cm and a height of 4.0 cm, and then parafilm (width 4.0 cm×height 4.0 cm) was placed thereon. Before being treated with a pesticide composition, 10 adult Thrips tabaci Lindeman were inoculated per petri dish using a No. 4 brush. In this case, Thrips tabaci Lindeman adults used were those collected in a place near the Andong National University (Korea) and bred for multiple generations. Then, the pesticide composition where the compound of Synthesis Example 2 was diluted (the solvent=distilled water+acetone 50,000 mg/L+Triton X-100 100 mg/L) was loaded into a 100 mL small sprayer, and sprayed 10-12 times at a distance of 30 cm and a height of 50 cm, and one cotyledons of soybean, which is a host plant, were added one at a time. Then, the Thrips tabaci Lindeman adults were stored under the conditions of 16 hours of light and 8 hours of darkness, 25±1° C., and relative humidity of 50-60%, and the number of live Thrips tabaci Lindeman adults was counted 24, and 48 hours after the inoculation. Thereafter, the larvae mortality rate was calculated in the same manner as in Test Example 1 above.

| SMILES | mortality at 0.1 ppm (Spodoptera litura) [%] | mortality at 1 ppm (Spodoptera litura) [%] | mortality at 10 ppm (Spodoptera litura) [%] | mortality at 1 ppm [1] [%] | mortality at 5 ppm [1] [%] | mortality at 10 ppm [1] [%] | mortality at 1 ppm (Thrips tabaci Lindeman) [%] | mortality at 3 ppm (Thrips tabaci Lindeman) [%] | mortality at 10 ppm (Thrips tabaci Lindeman) [%] |
| --- | --- | --- | --- | --- | --- | --- | --- | --- | --- |
| Cc1cc(C2=NOC(c3cc(Cl)cc(C(F)(F)F)c3)(C(F)(F)F)C2)ccc1C(=O)NC(=O)C1CC1 (racemic) [Synthesis Example 2] | 100 | 100 | 100 | 100 | 100 | 100 | 70 | 90 | 100 |
| CON=CNC(=O)c1ccc(C2=NOC(c3cc(Cl)cc(Cl)c3)(C(F)(F)F)C2)cc1C (stereo not drawn) [Comparative Example 1, fluxametamide] | 90 | 100 | 100 | 7 | 13 | 50 | 63 | 83 | 86 |
